Test results as given in patent publication US8088741B2, “Compounds for enzyme inhibition” (Onyx Therapeutics, Inc., priority 2004, dated 2012).

Assays:
[1] = target: 20S proteasome chymotrypsin-like activity (CT-L) (Homo sapiens, UniProt P28074); experiment: 20S proteasome chymotrypsin-like (CT-L) activity inhibition; assay type: biochemical
From the text: As used herein, the term “inhibitor” is meant to describe a compound that blocks or reduces an activity of an enzyme (for example, inhibition of proteolytic cleavage of standard fluorogenic peptide substrates such as suc-LLVY-AMC, Box-LLR-AMC and Z-LLE-AMC, inhibition of various catalytic activities of the 20S proteasome). An inhibitor can act with competitive, uncompetitive, or noncompetitive inhibition. An inhibitor can bind reversibly or irreversibly, and therefore the term includes compounds that are suicide substrates of an enzyme. An inhibitor can modify one or more sites on or near the active site of the enzyme, or it can cause a conformational change elsewhere on the enzyme.
The chymotrypsin-like activity of 20S proteasome is characterized by cleavage of peptides in the immediate vicinity of large hydrophobic residues. In particular, the chymotrypsin-like activity of Ntn hydrolases can be determined by cleavage of a standard substrate. Examples of such substrates are known in the art. For example, a leucylvalinyltyrosine derivative can be used. Enzyme kinetic assays are disclosed in U.S. application Ser. No. 09/569748, Example 2 and Stein et al., Biochem. (1996), 35, 3899-3908.

[2] = target: T1, Cell-based CT-L (proteasome chymotrypsin-like activity) (Homo sapiens, UniProt P28074); experiment: Cell-based proteasome CT-L activity inhibition
T1 construct: endogenous in cells
T1 sequence (P28074 60-263): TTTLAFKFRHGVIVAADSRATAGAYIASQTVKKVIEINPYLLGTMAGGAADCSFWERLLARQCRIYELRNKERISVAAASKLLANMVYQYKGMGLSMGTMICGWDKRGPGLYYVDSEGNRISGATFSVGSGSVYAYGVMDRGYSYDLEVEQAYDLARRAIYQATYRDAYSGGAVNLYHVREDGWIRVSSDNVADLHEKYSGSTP

| IC50 [1] [nM] | IC50 [2] [nM] | Compound |
| --- | --- | --- |
| < 50 | < 50 | CC(C)C[C@H](NC(=O)c1ccccc1)C(=O)N[C@@H](Cc1ccccc1)C(=O)N[C@@H](CC(C)C)C(=O)[C@@]1(C)CO1 [Compound 3] |
| < 500 | < 500 | CC(C)C[C@H](NC(=O)C1CCN(S(=O)(=O)c2cccs2)CC1)C(=O)N[C@@H](Cc1ccccc1)C(=O)N[C@@H](CC(C)C)C(=O)[C@@]1(C)CO1 [Compound 7] |
| < 50 | < 50 | Cc1ccc(CCC(=O)N[C@@H](CC(C)C)C(=O)N[C@@H](Cc2ccccc2)C(=O)N[C@@H](CC(C)C)C(=O)[C@@]2(C)CO2)cc1 [Compound 8] |
| < 50 | < 50 | CC(C)C[C@H](NC(=O)[C@H](CCc1ccccc1)NC(=O)CN1CCOCC1)C(=O)N[C@@H](Cc1ccc(F)cc1)C(=O)N[C@@H](CC(C)C)C(=O)[C@@]1(C)CO1 [Compound 9] |
| < 50 | < 50 | CC(C)C[C@H](NS(=O)(=O)c1ccsc1)C(=O)N[C@@H](Cc1ccccc1)C(=O)N[C@@H](CC(C)C)C(=O)[C@@]1(C)CO1 [Compound 14] |
| < 50 | < 50 | COc1ccc(NC(=S)N[C@@H](CC(C)C)C(=O)N[C@@H](Cc2ccccc2)C(=O)N[C@@H](CC(C)C)C(=O)[C@@]2(C)CO2)cc1 [Compound 16] |
| < 50 | < 50 | COc1ccc(NC(=O)N[C@@H](CC(C)C)C(=O)N[C@@H](Cc2ccccc2)C(=O)N[C@@H](CC(C)C)C(=O)[C@@]2(C)CO2)cc1 [Compound 17] |
| < 50 | < 50 | CC(C)C[C@H](NC(=O)CN1CCOCC1)C(=O)N[C@@H](Cc1ccccc1)C(=O)N[C@@H](CC(C)C)C(=O)[C@@]1(C)CO1 [Compound 18] |

| Compound | IC50 [1] [nM] | IC50 [2] [nM] |
| --- | --- | --- |
| CC(=O)N[C@@H](CCc1ccccc1)C(=O)N[C@@H](CC(C)C)C(=O)N[C@@H](CO)C(=O)N[C@@H](CC(C)C)C(=O)[C@@]1(C)CO1 [Compound 2] | < 50 | < 500 |
